Reference: the kinase profiling compilation of Christmann-Franck et al. (2016)

Columns and labels:
Assay in all cases: radiometric filter-binding kinase assay, Kinase HotSpot
Settings in all cases: compound 0.5 µM; ATP 10 µM
CAMK1 (human) = CAMK1 (human) (UniProt Q14012)
CDK1 CCNA2 (human) = CDK1 CCNA2 (human) (UniProt P06493+P20248)
CDK6 CCND3 (human) = CDK6 CCND3 (human) (UniProt P30281+Q00534)
CHUK (human) = CHUK (human) (UniProt O15111)
CLK3 (human) = CLK3 (human) (UniProt P49761)
CSNK1D (human) = CSNK1D (human) (UniProt P48730)
DAPK3 (human) = DAPK3 (human) (UniProt O43293)
DMPK (human) = DMPK (human) (UniProt Q09013)
EPHA3 (human) = EPHA3 (human) (UniProt P29320)
GSK3B (human) = GSK3B (human) (UniProt P49841)
HIPK3 (human) = HIPK3 (human) (UniProt Q9H422)
IKBKB (human) = IKBKB (human) (UniProt O14920)
IKBKE (human) = IKBKE (human) (UniProt Q14164)
MAP3K7 TAB1 (human) = MAP3K7 TAB1 (human) (UniProt O43318+Q15750)
MAP3K8 (human) = MAP3K8 (human) (UniProt P41279)
MAP4K4 (human) = MAP4K4 (human) (UniProt O95819)
MAP4K5 (human) = MAP4K5 (human) (UniProt Q9Y4K4)
MAPK10 (human) = MAPK10 (human) (UniProt P53779)
MAPK11 (human) = MAPK11 (human) (UniProt Q15759)
MAPK3 (human) = MAPK3 (human) (UniProt P27361)
MAPKAPK3 (human) = MAPKAPK3 (human) (UniProt Q16644)
NEK9 (human) = NEK9 (human) (UniProt Q8TD19)
NUAK2 (human) = NUAK2 (human) (UniProt Q9H093)
PAK1 (human) = PAK1 (human) (UniProt Q13153)
PDPK1 (human) = PDPK1 (human) (UniProt O15530)
PRKACA (human) = PRKACA (human) (UniProt P17612)
PRKCB2 (human) = PRKCB2 (human) (UniProt P05771)
PRKCH (human) = PRKCH (human) (UniProt P24723)
PTK2B (human) = PTK2B (human) (UniProt Q14289)
PTK6 (human) = PTK6 (human) (UniProt Q13882)
RAF1 (human) = RAF1 (human) (UniProt P04049)
RPS6KA6 KD1 KD2 (human) = RPS6KA6 KD1 KD2 (human) (UniProt Q9UK32)
SRPK2 (human) = SRPK2 (human) (UniProt P78362)
STK24 (human) = STK24 (human) (UniProt Q9Y6E0)
SYK (human) = SYK (human) (UniProt P43405)
TGFBR2 (human) = TGFBR2 (human) (UniProt P37173)
WNK3 (human) = WNK3 (human) (UniProt Q9BYP7)

Chain of EPHA3 (human) (P29320 whole entry, looked up): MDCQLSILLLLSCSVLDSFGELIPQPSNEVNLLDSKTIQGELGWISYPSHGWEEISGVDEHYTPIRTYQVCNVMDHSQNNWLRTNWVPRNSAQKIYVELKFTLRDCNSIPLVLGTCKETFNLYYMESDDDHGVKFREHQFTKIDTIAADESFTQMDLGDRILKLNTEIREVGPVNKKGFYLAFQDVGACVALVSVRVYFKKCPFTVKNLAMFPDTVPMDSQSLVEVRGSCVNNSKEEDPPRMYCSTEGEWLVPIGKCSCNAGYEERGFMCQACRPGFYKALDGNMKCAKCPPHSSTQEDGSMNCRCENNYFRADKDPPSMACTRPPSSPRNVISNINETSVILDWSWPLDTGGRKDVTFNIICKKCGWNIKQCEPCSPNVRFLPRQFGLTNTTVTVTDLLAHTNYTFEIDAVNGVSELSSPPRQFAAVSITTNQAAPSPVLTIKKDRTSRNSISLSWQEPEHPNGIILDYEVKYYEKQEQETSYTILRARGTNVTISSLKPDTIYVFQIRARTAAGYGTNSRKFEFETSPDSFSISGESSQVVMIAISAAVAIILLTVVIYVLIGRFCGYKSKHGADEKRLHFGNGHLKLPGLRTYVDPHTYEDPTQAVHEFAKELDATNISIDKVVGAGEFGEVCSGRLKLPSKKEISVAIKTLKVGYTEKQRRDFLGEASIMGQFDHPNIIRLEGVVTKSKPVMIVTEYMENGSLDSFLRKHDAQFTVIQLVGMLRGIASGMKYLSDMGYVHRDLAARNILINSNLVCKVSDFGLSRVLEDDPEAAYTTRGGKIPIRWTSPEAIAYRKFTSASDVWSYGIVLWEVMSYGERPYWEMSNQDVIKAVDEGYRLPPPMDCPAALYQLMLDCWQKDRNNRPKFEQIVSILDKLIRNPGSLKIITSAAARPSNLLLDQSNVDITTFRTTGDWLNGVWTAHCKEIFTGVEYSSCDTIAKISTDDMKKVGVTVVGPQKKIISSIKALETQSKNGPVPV
Chain of PAK1 (human) (Q13153 whole entry, looked up): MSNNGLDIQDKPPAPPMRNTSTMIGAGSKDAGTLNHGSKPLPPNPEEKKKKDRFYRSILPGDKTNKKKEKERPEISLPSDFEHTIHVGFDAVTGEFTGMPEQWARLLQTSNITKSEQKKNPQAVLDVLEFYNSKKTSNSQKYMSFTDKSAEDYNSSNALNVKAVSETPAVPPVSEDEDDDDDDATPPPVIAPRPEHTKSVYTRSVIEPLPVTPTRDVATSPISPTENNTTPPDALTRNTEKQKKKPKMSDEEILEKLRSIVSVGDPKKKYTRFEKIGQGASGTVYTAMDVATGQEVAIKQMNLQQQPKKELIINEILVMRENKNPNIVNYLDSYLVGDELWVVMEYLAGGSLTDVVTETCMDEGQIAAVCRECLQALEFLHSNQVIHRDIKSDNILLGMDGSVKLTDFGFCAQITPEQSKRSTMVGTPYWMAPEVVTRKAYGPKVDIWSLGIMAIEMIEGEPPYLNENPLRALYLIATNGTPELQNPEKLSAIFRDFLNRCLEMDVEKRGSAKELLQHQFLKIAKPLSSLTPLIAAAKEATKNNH
Chain of PTK2B (human) (Q14289 whole entry, looked up): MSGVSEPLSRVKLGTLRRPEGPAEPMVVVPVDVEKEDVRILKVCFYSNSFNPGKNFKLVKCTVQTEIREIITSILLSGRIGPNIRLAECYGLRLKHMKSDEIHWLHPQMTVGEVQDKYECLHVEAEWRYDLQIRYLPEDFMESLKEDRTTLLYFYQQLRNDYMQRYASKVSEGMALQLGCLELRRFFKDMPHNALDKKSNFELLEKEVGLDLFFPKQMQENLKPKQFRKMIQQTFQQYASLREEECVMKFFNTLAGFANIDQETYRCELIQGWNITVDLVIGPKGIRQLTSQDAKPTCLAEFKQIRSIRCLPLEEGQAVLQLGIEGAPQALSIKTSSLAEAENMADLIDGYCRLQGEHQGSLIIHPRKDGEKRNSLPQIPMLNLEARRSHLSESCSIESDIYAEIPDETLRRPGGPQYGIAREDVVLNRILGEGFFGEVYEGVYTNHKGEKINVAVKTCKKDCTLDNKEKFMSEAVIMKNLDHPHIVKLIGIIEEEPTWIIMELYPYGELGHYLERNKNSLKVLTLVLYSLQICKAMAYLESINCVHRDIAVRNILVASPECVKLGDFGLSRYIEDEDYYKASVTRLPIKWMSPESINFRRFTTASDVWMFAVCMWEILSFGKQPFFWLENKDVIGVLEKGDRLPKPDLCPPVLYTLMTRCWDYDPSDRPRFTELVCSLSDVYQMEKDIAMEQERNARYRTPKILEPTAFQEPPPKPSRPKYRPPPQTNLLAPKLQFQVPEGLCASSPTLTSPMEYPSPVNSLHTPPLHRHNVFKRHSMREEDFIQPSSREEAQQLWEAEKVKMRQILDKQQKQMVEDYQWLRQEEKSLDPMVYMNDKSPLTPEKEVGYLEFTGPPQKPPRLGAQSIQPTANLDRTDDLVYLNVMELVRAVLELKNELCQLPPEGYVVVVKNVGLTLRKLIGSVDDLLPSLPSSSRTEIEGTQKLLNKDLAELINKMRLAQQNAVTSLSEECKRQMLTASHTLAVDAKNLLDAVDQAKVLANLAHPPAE
Chain of DAPK3 (human) (O43293 whole entry, looked up): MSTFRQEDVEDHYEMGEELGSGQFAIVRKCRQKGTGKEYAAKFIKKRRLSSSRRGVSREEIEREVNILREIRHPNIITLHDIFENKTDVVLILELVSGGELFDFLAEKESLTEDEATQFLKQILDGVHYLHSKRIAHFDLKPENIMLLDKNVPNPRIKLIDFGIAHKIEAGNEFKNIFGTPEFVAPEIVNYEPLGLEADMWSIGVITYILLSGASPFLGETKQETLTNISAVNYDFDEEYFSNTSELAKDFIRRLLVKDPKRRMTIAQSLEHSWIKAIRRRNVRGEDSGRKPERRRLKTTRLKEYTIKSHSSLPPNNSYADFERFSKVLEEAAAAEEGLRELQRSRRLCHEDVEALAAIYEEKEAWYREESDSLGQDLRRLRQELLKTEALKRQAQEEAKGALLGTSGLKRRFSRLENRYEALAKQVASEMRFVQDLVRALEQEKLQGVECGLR
Chain of MAP3K7 TAB1 (human) (O43318 whole entry, looked up): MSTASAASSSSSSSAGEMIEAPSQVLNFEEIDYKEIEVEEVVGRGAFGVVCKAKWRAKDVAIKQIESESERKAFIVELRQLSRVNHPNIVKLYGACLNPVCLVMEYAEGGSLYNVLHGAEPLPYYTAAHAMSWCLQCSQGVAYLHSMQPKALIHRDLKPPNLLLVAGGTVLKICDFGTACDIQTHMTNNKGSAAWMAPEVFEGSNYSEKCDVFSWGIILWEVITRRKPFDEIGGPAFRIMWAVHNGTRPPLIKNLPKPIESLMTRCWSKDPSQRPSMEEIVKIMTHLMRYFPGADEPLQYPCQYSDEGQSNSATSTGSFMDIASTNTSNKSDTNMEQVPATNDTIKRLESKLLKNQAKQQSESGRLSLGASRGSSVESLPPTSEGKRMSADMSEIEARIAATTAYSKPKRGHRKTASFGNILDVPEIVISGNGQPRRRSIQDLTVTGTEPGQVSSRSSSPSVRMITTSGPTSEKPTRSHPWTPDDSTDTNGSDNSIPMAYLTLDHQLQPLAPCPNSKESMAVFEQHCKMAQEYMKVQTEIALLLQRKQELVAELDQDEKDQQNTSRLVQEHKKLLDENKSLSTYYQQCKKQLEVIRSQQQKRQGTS
Chain of MAP3K7 TAB1 (human) (Q15750 whole entry, looked up): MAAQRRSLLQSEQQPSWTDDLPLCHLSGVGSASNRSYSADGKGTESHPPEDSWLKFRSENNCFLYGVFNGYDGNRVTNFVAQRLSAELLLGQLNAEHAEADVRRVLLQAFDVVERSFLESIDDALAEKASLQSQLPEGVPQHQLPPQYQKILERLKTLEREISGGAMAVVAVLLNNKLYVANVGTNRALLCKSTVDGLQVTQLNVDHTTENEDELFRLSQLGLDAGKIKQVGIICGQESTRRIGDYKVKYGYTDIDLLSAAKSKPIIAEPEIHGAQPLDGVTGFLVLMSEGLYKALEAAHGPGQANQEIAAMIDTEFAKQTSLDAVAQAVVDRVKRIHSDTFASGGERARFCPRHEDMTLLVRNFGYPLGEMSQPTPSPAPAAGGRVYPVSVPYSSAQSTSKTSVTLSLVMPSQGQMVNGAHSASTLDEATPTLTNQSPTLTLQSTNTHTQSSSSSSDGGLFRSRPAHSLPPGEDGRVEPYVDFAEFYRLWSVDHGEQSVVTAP
Chain of DMPK (human) (Q09013 whole entry, looked up): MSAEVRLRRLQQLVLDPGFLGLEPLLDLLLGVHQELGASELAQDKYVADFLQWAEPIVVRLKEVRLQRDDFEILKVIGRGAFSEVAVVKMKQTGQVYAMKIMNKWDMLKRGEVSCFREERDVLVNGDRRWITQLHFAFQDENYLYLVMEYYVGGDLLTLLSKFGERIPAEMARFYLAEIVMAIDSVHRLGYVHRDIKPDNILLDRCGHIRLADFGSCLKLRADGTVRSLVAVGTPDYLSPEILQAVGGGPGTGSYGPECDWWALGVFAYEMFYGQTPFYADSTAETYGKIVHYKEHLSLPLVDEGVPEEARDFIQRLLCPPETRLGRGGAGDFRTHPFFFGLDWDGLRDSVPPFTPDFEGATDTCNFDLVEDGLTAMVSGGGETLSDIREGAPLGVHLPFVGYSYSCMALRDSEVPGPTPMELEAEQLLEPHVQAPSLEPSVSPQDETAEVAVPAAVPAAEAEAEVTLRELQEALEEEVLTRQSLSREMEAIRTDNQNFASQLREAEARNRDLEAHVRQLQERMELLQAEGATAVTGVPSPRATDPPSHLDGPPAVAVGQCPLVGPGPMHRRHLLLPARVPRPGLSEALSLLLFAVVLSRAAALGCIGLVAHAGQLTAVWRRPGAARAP

| Structure (SMILES) | residual activity (CAMK1 (human)) | residual activity (CDK1 CCNA2 (human)) | residual activity (CDK6 CCND3 (human)) | residual activity (CHUK (human)) | residual activity (CLK3 (human)) | residual activity (CSNK1D (human)) | residual activity (DAPK3 (human)) | residual activity (DMPK (human)) | residual activity (EPHA3 (human)) | residual activity (GSK3B (human)) | residual activity (HIPK3 (human)) | residual activity (IKBKB (human)) | residual activity (IKBKE (human)) | residual activity (MAP3K7 TAB1 (human)) | residual activity (MAP3K8 (human)) | residual activity (MAP4K4 (human)) | residual activity (MAP4K5 (human)) | residual activity (MAPK10 (human)) | residual activity (MAPK11 (human)) | residual activity (MAPK3 (human)) | also measured |
| --- | --- | --- | --- | --- | --- | --- | --- | --- | --- | --- | --- | --- | --- | --- | --- | --- | --- | --- | --- | --- | --- |
| CCCCc1c(-c2ccc(OC)cc2)[nH]c2nccnc12 | 90.9% | 65.4% | 79.7% | 97.3% | 116% | 94.7% | 102% | 84.3% | 91.9% | 70.2% | 99.9% | 102% | 100% | 90.6% | 98.2% | 66.5% | 63.8% | 97.2% | 100% | 111% | residual activity (MAPKAPK3 (human)): 98.6%; residual activity (NEK9 (human)): 106%; residual activity (NUAK2 (human)): 68%; residual activity (PAK1 (human)): 83.7%; residual activity (PDPK1 (human)): 102%; residual activity (PRKACA (human)): 96.6%; residual activity (PRKCB2 (human)): 106%; residual activity (PRKCH (human)): 103%; residual activity (PTK2B (human)): 100%; residual activity (PTK6 (human)): 30.4%; residual activity (RAF1 (human)): 99.9%; residual activity (RPS6KA6 KD1 KD2 (human)): 78.2%; residual activity (SRPK2 (human)): 105%; residual activity (STK24 (human)): 87.3%; residual activity (SYK (human)): 47.5%; residual activity (TGFBR2 (human)): 74.8%; residual activity (WNK3 (human)): 88.4% |
| COc1cc2ncnc(Nc3ccc(OCc4ccccc4)cc3)c2cc1OC | 98.4% | 97.2% | 97.8% | 95.1% | 98.2% | 96.6% | 99.2% | 104% | 98.1% | 119% | 85.3% | 103% | 99.7% | 101% | 90.1% | 103% | 65.4% | 84.5% | 96.9% | 98.4% | residual activity (MAPKAPK3 (human)): 102%; residual activity (NEK9 (human)): 104%; residual activity (NUAK2 (human)): 101%; residual activity (PAK1 (human)): 93.2%; residual activity (PDPK1 (human)): 103%; residual activity (PRKACA (human)): 101%; residual activity (PRKCB2 (human)): 106%; residual activity (PRKCH (human)): 97.2%; residual activity (PTK2B (human)): 99.8%; residual activity (PTK6 (human)): 37.9%; residual activity (RAF1 (human)): 61%; residual activity (RPS6KA6 KD1 KD2 (human)): 95.9%; residual activity (SRPK2 (human)): 92.3%; residual activity (STK24 (human)): 104%; residual activity (SYK (human)): 93.1%; residual activity (TGFBR2 (human)): 121%; residual activity (WNK3 (human)): 90.8% |
| Ic1cccc(CSc2nnc(-c3ccncc3)o2)c1 | 102% | 99.8% | 102% | 96.5% | 76.3% | 103% | 107% | 105% | 111% | 59.8% | 99.1% | 89.3% | 102% | 102% | 96.1% | 97.4% | 99.5% | 95.7% | 96.9% | 95.8% | residual activity (MAPKAPK3 (human)): 109%; residual activity (NEK9 (human)): 99.2%; residual activity (NUAK2 (human)): 98.9%; residual activity (PAK1 (human)): 94.8%; residual activity (PDPK1 (human)): 98.3%; residual activity (PRKACA (human)): 94.6%; residual activity (PRKCB2 (human)): 91.2%; residual activity (PRKCH (human)): 99.1%; residual activity (PTK2B (human)): 92.1%; residual activity (PTK6 (human)): 104%; residual activity (RAF1 (human)): 92.8%; residual activity (RPS6KA6 KD1 KD2 (human)): 103%; residual activity (SRPK2 (human)): 97.4%; residual activity (STK24 (human)): 108%; residual activity (SYK (human)): 92.2%; residual activity (TGFBR2 (human)): 121%; residual activity (WNK3 (human)): 101% |
| COc1ccc(C(=O)Nc2sc3c(c2C(N)=O)CCCC3)cc1OC | 90.9% | 105% | 94.9% | 83.3% | 63% | 103% | 102% | 108% | 108% | 97.7% | 105% | 87.6% | 106% | 101% | 106% | 79.9% | 94.3% | 84.5% | 104% | 95.2% | residual activity (MAPKAPK3 (human)): 97.2%; residual activity (NEK9 (human)): 94.6%; residual activity (NUAK2 (human)): 99.5%; residual activity (PAK1 (human)): 94%; residual activity (PDPK1 (human)): 87.8%; residual activity (PRKACA (human)): 102%; residual activity (PRKCB2 (human)): 93.5%; residual activity (PRKCH (human)): 101%; residual activity (PTK2B (human)): 95.5%; residual activity (PTK6 (human)): 97.8%; residual activity (RAF1 (human)): 94.8%; residual activity (RPS6KA6 KD1 KD2 (human)): 98.5%; residual activity (SRPK2 (human)): 97.6%; residual activity (STK24 (human)): 93.9%; residual activity (SYK (human)): 91.2%; residual activity (TGFBR2 (human)): 134%; residual activity (WNK3 (human)): 96.4% |
